The values that follow are results of earlier work, collected in US20060094833A1, “Shock resistant cyanoacrylate compositions” (LOCTITE (R&D) LIMITED, priority 2004, published 2006).

The conditions of this series: for pKa 1: first acid group; for pKa 2: second acid group; for pKa 3: third acid group; for pKa 4: fourth.

Each structure is given as a SMILES string.

As to `O=C(O)CC(CC(=O)O)C(=O)O` [1,2,3-Propane tricarboxylic acid], the “pKa 1” value is 4.31, the “pKa 2” value was 4.82 and the “pKa 3” value is 5.21.

On to `CC(=O)C(=O)O` [Pyruvic acid], for which the “pKa 1” value is given as 2.65.

Take `O=C(O)c1cc(C(=O)O)c(C(=O)O)cc1C(=O)O` [1,2,4,5-Benzene tetracarboxylic acid]: the “pKa 4” value is 5.80, the “pKa 2” value is listed as 2.71 and the “pKa 3” value is 4.97.

Consider `O=C(O)CC(C(=O)O)C(CC(=O)O)C(=O)O` (centres unmarked) [1,2,3,4-Butane tetracarboxylic acid], for which the “pKa 1” value is on record as 3.25, the “pKa 4” value is recorded as 6.54, the “pKa 2” value is 4.51 and the “pKa 3” value is given as 5.02.

Consider `O=C(O)CC(O)(CC(=O)O)C(=O)O` [Citric acid], for which the “pKa 1” value is on record as 2.93, the “pKa 4” value is listed as 16.13, the “pKa 2” value was 4.23 and the “pKa 3” value is 5.09.

In the case of `O=C(O)c1ccc(C(=O)O)c(C(=O)O)c1` [1,2,4-Benzene tricarboxylic acid], the “pKa 2” value is 3.83.

With `O=C(O)C=C(CC(=O)O)C(=O)O` [1,2,3-Propene tricarboxylic acid], the “pKa 1” value was 2.97, the “pKa 2” value is 4.34 and the “pKa 3” value is given as 4.99.

Regarding `O=C(O)c1ccc2c(c1)C(=O)OC2=O` [1,2,4-Benzene tricarboxylic anhydride], the “pKa 1” value is reported as 3.33.

With `O.O=C(O)c1cccc(C(=O)O)c1C(=O)O` [1,2,3-Benzene tricarboxylic acid hydrate], the “pKa 1” value is 2.52, the “pKa 2” value is recorded as 4.00 and the “pKa 3” value is given as 6.12.
